Values of other authors, collected in patent publication US12037623B2, “Enzymatic synthesis of 4′-ethynyl nucleoside analogs” (priority 2018, dated 2024).

Key:
SIV = settings: PBMC from rhesus macaque, 24 hr after drug administration
[1] = oral; mouse and rhesus monkey
HIV infection = settings: humanized mouse models and SIV infected rhesus macaque model
[2] = pbmc

Row | absorption [1] | plasma concentrations [1] | Compound | susceptibility of isolated PBMC to SIV infection (SIV) | efficacy in animal models of HIV infection (HIV infection) | antiviral activity against clinical isolates (HIV; clinical isolates across all subtypes that have been evaluated) | antiretroviral activity (HIV; in-vitro HIV replication assays) | intracellular half-life [2]
1 | rapid absorption | high plasma concentrations | C#C[C@]1(CO)O[C@@H](n2cnc3c(N)nc(F)nc32)C[C@@H]1O [EFdA, 4′-ethynyl-2-fluoro-2′-deoxyadenosine] | refractory to SIV infection | efficacy | comparable antiviral activity | potent antiretroviral | –
2 | – | – | C#C[C@]1(COP(=O)(O)OP(=O)(O)OP(=O)(O)O)O[C@@H](n2cnc3c(N)nc(F)nc32)C[C@@H]1O [EFdA-TP, EFdA Triphosphate] | – | – | – | – | exceeds 72 hrs
